Consider 3 molecules from patent US10822331B2, “Processes for preparing ATR inhibitors” (Vertex Pharmaceuticals Incorporated, priority 2011, dated 2020).

The subject of the assay is HCT116 colorectal cancer cells. Nature of the assay: Cisplatin sensitization assay (96 h MTS cell viability). Type of assay: cell-based. The conditions noted are these: concentration of compound required to reduce the IC50 of Cisplatin alone by at least 3-fold, HCT116, 96 h. The protocol: Compounds can be screened for their ability to sensitize HCT116 colorectal cancer cells to Cisplatin using a 96 h cell viability (MTS) assay. […] Compounds and Cisplatin are then both added simultaneously to the cell media in 2-fold serial dilutions from a top final concentration of […] as a full matrix of concentrations in a final cell volume of 200 μl, and the cells are then incubated at 37° C. in 5% CO2. After 96 h, 40 μl of MTS reagent (Promega G358a) is added to each well and the cells are incubated for 1 h at 37° C. in 5% CO2.
`[2H]C([2H])(NC)c1ccc(-c2cc(-c3nc(-c4ccc(S(=O)(=O)C(C)C)cc4)cnc3N)on2)cc1` [II-1, 3-[3-[4-[dideuterio(methylamino)methyl]phenyl]isoxazol-5-yl]-5-(4-isopropylsulfonylphenyl)pyrazin-2-amine]: the Cisplatin sensitization stood at 39 nM. With `[2H]C([2H])([2H])NC([2H])([2H])c1ccc(-c2cc(-c3nc(-c4ccc(S(=O)(=O)C(C)C)cc4)cnc3N)on2)cc1` [II-2, 3-[3-[4-[dideuterio-(trideuteriomethylamino)methyl]phenyl]isoxazol-5-yl]-5-(4-isopropylsulfonylphenyl)pyrazin-2-amine] the figure was 29 nM; with `[2H]C([2H])([2H])NCc1ccc(-c2cc(-c3nc(-c4ccc(S(=O)(=O)C(C)C)cc4)cnc3N)on2)cc1` [II-3, 5-(4-isopropylsulfonylphenyl)-3-[3-[4-[(trideuteriomethylamino)methyl]phenyl]isoxazol-5-yl]pyrazin-2-amine], 39 nM.
